The values that follow are results of earlier work, collected in patent publication US20190175510A1, “PHARMACEUTICAL MATRIX FORMULATIONS COMPRISING DIMETHYL FUMARATE” (BIOGEN MA INC., priority 2014, published 2019).

Counter-ions that a name gives are not always drawn.

The conditions of this data set: species not stated.

Regarding `COC(=O)/C=C/C(=O)O` [MMF, monomethyl fumarate], the “half-life of MMF” value was “approximately 1 hour”.
